Measured values taken from ChEMBL document CHEMBL3779788, “Facile synthesis of 1,3-thiazolidin-4-ones as antitubercular agents” (Bioorg Med Chem Lett, 2016).
Converted amounts (≈) assume the structure as drawn.

How the values were obtained:
[1] = Cytotoxicity against human HCT116 cells at 30 ug/mL by MTT assay; format: cell-based, HCT-116; conditions: read-out: INH
[2] = (§1) Cytotoxicity against human A549 cells after 48 and 72 hrs by MTT assay; format: cell-based; conditions: A549 cells
A549 = test: as §1; format: cell-based; conditions: a549, 72 h
[3] = system: Mycobacterium tuberculosis; test: Antitubercular activity against dormant Mycobacterium tuberculosis H37Ra by XTT reduction menadione assay; format: functional, organism-based
[4] = Cytotoxicity against human HCT116 cells at 3 ug/mL by MTT assay; format: cell-based, HCT-116; conditions: read-out: INH
[5] = Cytotoxicity against human MCF7 cells at 10 ug/mL by MTT assay; format: cell-based; conditions: read-out: INH
[6] = system: Mycobacterium bovis BCG str. ATCC 35743; test: Antitubercular activity against dormant Mycobacterium bovis BCG ATCC 35743 assessed as growth inhibition at 10 ug/mL by NR assay; format: functional
[7] = Cytotoxicity against human A549 cells at 30 ug/mL by MTT assay; format: cell-based; conditions: read-out: INH
Staphylococcus aureus = test: Antibacterial activity against Staphylococcus aureus after 18 hrs by broth dilution method; format: functional, organism-based
[8] = Cytotoxicity against human HCT116 cells after 48 and 72 hrs by MTT assay; format: cell-based, HCT-116; conditions: for GI50 at 72 h: HCT116 cells; for GI90: hct-116, 72 h
[9] = Cytotoxicity against human MCF7 cells at 30 ug/mL by MTT assay; format: cell-based; conditions: read-out: INH
Escherichia coli = test: Antibacterial activity against Escherichia coli after 18 hrs by broth dilution method; format: functional, organism-based
[10] = system: Mycobacterium tuberculosis; test: Antitubercular activity against dormant Mycobacterium tuberculosis H37Ra assessed as growth inhibition at 10 ug/mL by XTT reduction menadione assay; format: functional; conditions: read-out: GI
Bacillus subtilis = test: Antibacterial activity against Bacillus subtilis after 18 hrs by broth dilution method; format: functional, organism-based
[11] = Cytotoxicity against human A549 cells at 3 ug/mL by MTT assay; format: cell-based; conditions: read-out: INH
[12] = system: Mycobacterium bovis BCG str. ATCC 35743; test: Antitubercular activity against dormant Mycobacterium bovis BCG ATCC 35743 assessed as growth inhibition at 3 ug/mL by NR assay; format: functional
[13] = Cytotoxicity against human HCT116 cells at 10 ug/mL by MTT assay; format: cell-based, HCT-116; conditions: read-out: INH
[14] = system: Mycobacterium bovis BCG str. ATCC 35743; test: Antitubercular activity against dormant Mycobacterium bovis BCG ATCC 35743 assessed as growth inhibition at 30 ug/mL by NR assay; format: functional
[15] = system: Mycobacterium tuberculosis; test: Antitubercular activity against dormant Mycobacterium tuberculosis H37Ra assessed as growth inhibition at 30 ug/mL by XTT reduction menadione assay; format: functional; conditions: read-out: GI
[16] = Cytotoxicity against human MCF7 cells at 3 ug/mL by MTT assay; format: cell-based; conditions: read-out: INH
[17] = system: Mycobacterium tuberculosis; test: Antitubercular activity against dormant Mycobacterium tuberculosis H37Ra assessed as growth inhibition at 3 ug/mL by XTT reduction menadione assay; format: functional; conditions: read-out: GI
[18] = (§2) Cytotoxicity against human MCF7 cells after 48 and 72 hrs by MTT assay; format: cell-based; conditions: MCF7 cells
MCF7 = test: as §2; format: cell-based; conditions: mcf7, 72 h
[19] = (§3) Antitubercular activity against dormant Mycobacterium bovis BCG ATCC 35743 by NR assay; format: functional, Mycobacterium bovis BCG str. ATCC 35743
[20] = system: Mycobacterium bovis BCG str. ATCC 35743; test: as §3; format: functional
[21] = Cytotoxicity against human A549 cells at 10 ug/mL by MTT assay; format: cell-based; conditions: read-out: INH
Pseudomonas = test: Antibacterial activity against Pseudomonas after 18 hrs by broth dilution method; format: functional, organism-based

Row | SMILES | cytotoxicity at 30 ug/mL [1] [%] | GI50 at 72 h [2] [µg/mL] | GI90 (A549) [µg/mL] | IC50 [3] [µg/mL] | IC90 [3] [µg/mL] | cytotoxicity at 3 ug/mL [4] [%] | cytotoxicity at 10 ug/mL [5] [%] | growth inhibition (GI) [6] [%] | cytotoxicity at 30 ug/mL [7] [%] | GI50 at 72 h [8] [µg/mL] | GI90 [8] [µg/mL] | cytotoxicity at 30 ug/mL [9] [%] | inhibition of growth at 10 µg/mL [10] [%] | cytotoxicity at 3 ug/mL [11] [%] | growth inhibition (GI) [12] [%] | cytotoxicity at 10 ug/mL [13] [%] | growth inhibition (GI) [14] [%] | inhibition of growth at 30 µg/mL [15] [%] | cytotoxicity at 3 ug/mL [16] [%] | inhibition of growth at 3 µg/mL [17] [%] | other results
1 | O=C1CSC(c2ccccc2)N1c1ccc(Cl)cc1 (stereo unspecified) | 32.8 | > 100 | > 100 | 17.3 (≈ 59.7 µM) | 28.7 (≈ 99 µM) | 19 | 19.5 | -11.3 | 13.4 | > 100 | > 100 | 38 | 24.2 | -12.3 | 1.3 | 30 | 11.6 | 94.3 | 11.2 | -17 | IC50 (Staphylococcus aureus): > 30 µg/mL; MIC (Staphylococcus aureus): > 30 µg/mL; IC50 (Escherichia coli): > 30 µg/mL; MIC (Escherichia coli): > 30 µg/mL; IC50 (Bacillus subtilis): > 30 µg/mL; MIC (Bacillus subtilis): > 30 µg/mL; GI50 at 72 h [18]: > 100 µg/mL; GI90 (MCF7): > 100 µg/mL; IC50 [19]: > 30 µg/mL; IC90 [20]: > 30 µg/mL; cytotoxicity at 10 ug/mL [21]: 0%; IC50 (Pseudomonas): > 30 µg/mL; MIC (Pseudomonas): > 30 µg/mL
2 | O=C1CSC(c2ccccc2)N1c1ccc(F)cc1 (stereo unspecified) | -6 | > 100 | > 100 | 19.8 (≈ 72.4 µM) | > 30 | -5.4 | 0 | 19.5 | 11 | > 100 | > 100 | 7.5 | 31.4 | -13.4 | 27.7 | 5.3 | 31 | 70 | -3.9 | 7.5 | IC50 (Staphylococcus aureus): > 30 µg/mL; MIC (Staphylococcus aureus): > 30 µg/mL; IC50 (Escherichia coli): > 30 µg/mL; MIC (Escherichia coli): > 30 µg/mL; IC50 (Bacillus subtilis): > 30 µg/mL; MIC (Bacillus subtilis): > 30 µg/mL; GI50 at 72 h [18]: > 100 µg/mL; GI90 (MCF7): > 100 µg/mL; IC50 [19]: > 30 µg/mL; IC90 [20]: > 30 µg/mL; cytotoxicity at 10 ug/mL [21]: 0%; IC50 (Pseudomonas): > 30 µg/mL; MIC (Pseudomonas): > 30 µg/mL
3 | COc1ccc(C2SCC(=O)N2c2ccccc2)cc1 (stereo unspecified) | 8.4 | > 100 | > 100 | 4.2 (≈ 14.7 µM) | > 30 | -5.4 | 12.6 | 56.1 | -4.3 | > 100 | > 100 | 18.3 | 74.1 | 0 | 23.2 | 7.2 | 85.9 | 83.3 | -2.6 | 45.1 | IC50 (Staphylococcus aureus): > 30 µg/mL; MIC (Staphylococcus aureus): > 30 µg/mL; IC50 (Escherichia coli): > 30 µg/mL; MIC (Escherichia coli): > 30 µg/mL; IC50 (Bacillus subtilis): > 30 µg/mL; MIC (Bacillus subtilis): > 30 µg/mL; GI50 at 72 h [18]: > 100 µg/mL; GI90 (MCF7): > 100 µg/mL; IC50 [19]: 8.7 µg/mL (≈ 30.5 µM); IC90 [20]: > 30 µg/mL; cytotoxicity at 10 ug/mL [21]: 0%; IC50 (Pseudomonas): > 30 µg/mL; MIC (Pseudomonas): > 30 µg/mL
4 | O=C1CSC(c2ccccc2)N1c1ccccc1 (stereo unspecified) | 16.8 | > 100 | > 100 | > 30 | > 30 | 3.3 | 5.3 | 15.4 | 0 | > 100 | > 100 | 31.7 | 31.7 | 0 | 14.2 | 3.2 | 80.7 | 34.5 | -4.2 | 5 | IC50 (Staphylococcus aureus): > 30 µg/mL; MIC (Staphylococcus aureus): > 30 µg/mL; IC50 (Escherichia coli): > 30 µg/mL; MIC (Escherichia coli): > 30 µg/mL; IC50 (Bacillus subtilis): > 30 µg/mL; MIC (Bacillus subtilis): > 30 µg/mL; GI50 at 72 h [18]: > 100 µg/mL; GI90 (MCF7): > 100 µg/mL; IC50 [19]: 20.7 µg/mL (≈ 81.1 µM); IC90 [20]: > 30 µg/mL; cytotoxicity at 10 ug/mL [21]: 0%; IC50 (Pseudomonas): > 30 µg/mL; MIC (Pseudomonas): > 30 µg/mL
5 | Cc1ccc(C2SCC(=O)N2c2ccc(F)cc2)cc1 (stereo unspecified) | 29.6 | > 100 | > 100 | 29.8 (≈ 104 µM) | > 30 | 1.1 | 37.7 | -4 | -11.4 | > 100 | > 100 | 37.5 | -37 | 0 | -3 | 9.1 | -3.9 | 51.3 | 22.3 | 10.9 | IC50 (Staphylococcus aureus): > 30 µg/mL; MIC (Staphylococcus aureus): > 30 µg/mL; IC50 (Escherichia coli): > 30 µg/mL; MIC (Escherichia coli): > 30 µg/mL; IC50 (Bacillus subtilis): > 30 µg/mL; MIC (Bacillus subtilis): > 30 µg/mL; GI50 at 72 h [18]: > 100 µg/mL; GI90 (MCF7): > 100 µg/mL; IC50 [19]: > 30 µg/mL; IC90 [20]: > 30 µg/mL; cytotoxicity at 10 ug/mL [21]: 0%; IC50 (Pseudomonas): > 30 µg/mL; MIC (Pseudomonas): > 30 µg/mL
6 | CC(=O)O[C@H]1C(=O)[C@@]2(C)[C@H]([C@H](OC(=O)c3ccccc3)[C@]3(O)C[C@H](OC(=O)[C@H](O)[C@@H](NC(=O)c4ccccc4)c4ccccc4)C(C)=C1C3(C)C)[C@]1(OC(C)=O)CO[C@@H]1C[C@@H]2O [PACLITAXEL] | – | 0.039 (≈ 0.0457 µM) | < 0.004 | – | – | – | – | – | – | 5.21 (≈ 6.1 µM) | 0.026 (≈ 0.0304 µM) | – | – | – | – | – | – | – | – | – | GI50 at 72 h [18]: 0.075 µg/mL (≈ 0.0878 µM); GI90 (MCF7): 0.0039 µg/mL (≈ 0.00457 µM)
7 | COc1ccc(N2C(=O)CSC2c2ccccc2)cc1 (stereo unspecified) | 10.2 | > 100 | > 100 | 2.2 (≈ 7.71 µM) | 24 (≈ 84.1 µM) | -6.1 | 8.9 | 30.2 | 4.4 | > 100 | > 100 | 15.4 | 86 | -0.1 | -0.1 | 7.2 | 71.9 | 91.4 | -10 | 65.4 | IC50 (Staphylococcus aureus): > 30 µg/mL; MIC (Staphylococcus aureus): > 30 µg/mL; IC50 (Escherichia coli): > 30 µg/mL; MIC (Escherichia coli): > 30 µg/mL; IC50 (Bacillus subtilis): > 30 µg/mL; MIC (Bacillus subtilis): > 30 µg/mL; GI50 at 72 h [18]: > 100 µg/mL; GI90 (MCF7): > 100 µg/mL; IC50 [19]: > 30 µg/mL; IC90 [20]: > 30 µg/mL; cytotoxicity at 10 ug/mL [21]: 0%; IC50 (Pseudomonas): > 30 µg/mL; MIC (Pseudomonas): > 30 µg/mL
8 | O=C1CSC(c2ccc(Cl)cc2)N1c1ccccc1 (stereo unspecified) | 3.9 | > 100 | > 100 | 5.6 (≈ 19.3 µM) | > 30 | -7.5 | 20.6 | 15.9 | -20.4 | > 100 | > 100 | 40.1 | 76.8 | -10.3 | -0.5 | 0 | 45.6 | 82.1 | -1.4 | 34.3 | IC50 (Staphylococcus aureus): > 30 µg/mL; MIC (Staphylococcus aureus): > 30 µg/mL; IC50 (Escherichia coli): > 30 µg/mL; MIC (Escherichia coli): > 30 µg/mL; IC50 (Bacillus subtilis): > 30 µg/mL; MIC (Bacillus subtilis): > 30 µg/mL; GI50 at 72 h [18]: > 100 µg/mL; GI90 (MCF7): > 100 µg/mL; IC50 [19]: > 30 µg/mL; IC90 [20]: > 30 µg/mL; cytotoxicity at 10 ug/mL [21]: 0%; IC50 (Pseudomonas): > 30 µg/mL; MIC (Pseudomonas): > 30 µg/mL
9 | Cc1ccc(N2C(=O)CSC2c2ccc(Cl)cc2)cc1 (stereo unspecified) | 28.8 | – | – | > 30 | > 30 | -8.6 | 9.6 | 29.2 | 0 | – | – | 11.3 | 38.1 | 1.3 | -6.6 | 7.2 | 5.3 | 5.2 | -0.9 | 34 | IC50 [19]: > 30 µg/mL; IC90 [20]: > 30 µg/mL; cytotoxicity at 10 ug/mL [21]: 0%
